The target in this experiment is T1, human androgen receptor (hAR) (Homo sapiens, UniProt P10275).
T1 construct: expressed in transfected cells
T1 sequence (P10275 1-920): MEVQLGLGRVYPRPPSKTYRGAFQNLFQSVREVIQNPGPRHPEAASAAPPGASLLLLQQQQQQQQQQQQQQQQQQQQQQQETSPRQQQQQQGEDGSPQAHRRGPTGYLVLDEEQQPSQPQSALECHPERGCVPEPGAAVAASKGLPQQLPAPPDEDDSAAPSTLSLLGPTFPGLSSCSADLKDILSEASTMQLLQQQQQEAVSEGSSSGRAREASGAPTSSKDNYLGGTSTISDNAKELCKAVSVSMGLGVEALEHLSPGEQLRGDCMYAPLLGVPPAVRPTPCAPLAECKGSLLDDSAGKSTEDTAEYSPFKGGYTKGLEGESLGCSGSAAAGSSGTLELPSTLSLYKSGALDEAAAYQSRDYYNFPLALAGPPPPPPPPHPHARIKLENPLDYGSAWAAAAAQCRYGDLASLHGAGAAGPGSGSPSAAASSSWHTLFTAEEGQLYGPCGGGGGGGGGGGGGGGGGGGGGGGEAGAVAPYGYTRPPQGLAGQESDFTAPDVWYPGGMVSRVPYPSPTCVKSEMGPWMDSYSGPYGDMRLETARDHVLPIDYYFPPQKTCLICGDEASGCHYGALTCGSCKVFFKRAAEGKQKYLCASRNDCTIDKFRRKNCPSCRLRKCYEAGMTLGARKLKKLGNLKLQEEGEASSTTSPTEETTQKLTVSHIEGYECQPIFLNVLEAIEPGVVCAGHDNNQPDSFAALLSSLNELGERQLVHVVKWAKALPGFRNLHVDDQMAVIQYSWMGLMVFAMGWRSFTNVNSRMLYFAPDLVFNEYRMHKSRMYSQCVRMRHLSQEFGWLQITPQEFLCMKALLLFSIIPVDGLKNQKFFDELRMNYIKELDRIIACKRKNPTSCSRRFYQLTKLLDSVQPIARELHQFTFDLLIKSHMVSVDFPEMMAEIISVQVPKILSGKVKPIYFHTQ
Briefly: Functional response (transactivation) test in HALP2 cells (HeLa stably expressing hAR and ARE-luciferase reporter). It counts as cell-based. The note with it: HALP2 cells; for Emax: HeLa, maximal activation by the compound compared with DHT alone (100%), read-out: % effect relative to DHT (100%); for EC50: agonism: concentration inducing 50% of the maximum agonistic effect of the tested compound, 24 hours, read-out: EC50. On the technique in general: In a reporter assay the amount or activity of a reporter protein is the signal.

As for `CN1C(=O)N(c2ccc(C#N)c(C(F)(F)F)c2)C(=O)C1(CO)c1ccc(Cl)cc1` (stereo not drawn) [Example 7, 4-[4-(4-Chlorophenyl)-2,5-dioxo-4-hydroxymethyl-3-methyl-imidazolidin-1-yl)-2-trifluoromethylbenzonitrile], the Emax lay within 21 to 40% and the EC50 (in general, the concentration giving half of the maximal effect) lay in the range of 101 to 500 nM.

Take `CN1C(=O)N(c2ccc(C#N)c(C(F)(F)F)c2)C(=O)[C@@]1(CO)c1ccccc1` [Example 10, (S)-4-[2,5-Dioxo-4-(hydroxymethyl)-3-methyl-4-phenylimidazolidin-1-yl]-2-trifluoromethylbenzonitrile]: the Emax was in the range of 21 to 40% and the EC50 is 11 to 100 nM.

In the case of `CCN1C(=O)N(c2ccc(C#N)c(C(F)(F)F)c2)C(=O)C1(CO)c1ccccc1` (stereo not drawn) [Example 12, 4-[2,5-Dioxo-3-ethyl-4-(hydroxymethyl)-4-phenylimidazolidin-1-yl]-2-trifluoromethylbenzonitrile], the Emax was 21 to 40% and the EC50 was 0.01 to 10 nM.

The values above are taken from patent US8383608B2, “Imidazolidine compounds as androgen receptor modulators” (Dart Therapeutics LLC, priority 2008, dated 2013).
